Data: ChEMBL document CHEMBL2311368 (Bioorg Med Chem Lett, 2013)

Legend:
[1] = molecular target: T1, Platelet-derived growth factor receptor beta (Homo sapiens, UniProt P09619); experiment: Inhibition of human PDGFRbeta using poly[Glu:Tyr] (4:1) peptide substrate
[2] = molecular target: T2, Receptor-type tyrosine-protein kinase FLT3 (Homo sapiens, UniProt P36888); experiment: Inhibition of human FLT3 using EAIYAAPFAKKK peptide substrate
T2 sequence (P36888 whole entry): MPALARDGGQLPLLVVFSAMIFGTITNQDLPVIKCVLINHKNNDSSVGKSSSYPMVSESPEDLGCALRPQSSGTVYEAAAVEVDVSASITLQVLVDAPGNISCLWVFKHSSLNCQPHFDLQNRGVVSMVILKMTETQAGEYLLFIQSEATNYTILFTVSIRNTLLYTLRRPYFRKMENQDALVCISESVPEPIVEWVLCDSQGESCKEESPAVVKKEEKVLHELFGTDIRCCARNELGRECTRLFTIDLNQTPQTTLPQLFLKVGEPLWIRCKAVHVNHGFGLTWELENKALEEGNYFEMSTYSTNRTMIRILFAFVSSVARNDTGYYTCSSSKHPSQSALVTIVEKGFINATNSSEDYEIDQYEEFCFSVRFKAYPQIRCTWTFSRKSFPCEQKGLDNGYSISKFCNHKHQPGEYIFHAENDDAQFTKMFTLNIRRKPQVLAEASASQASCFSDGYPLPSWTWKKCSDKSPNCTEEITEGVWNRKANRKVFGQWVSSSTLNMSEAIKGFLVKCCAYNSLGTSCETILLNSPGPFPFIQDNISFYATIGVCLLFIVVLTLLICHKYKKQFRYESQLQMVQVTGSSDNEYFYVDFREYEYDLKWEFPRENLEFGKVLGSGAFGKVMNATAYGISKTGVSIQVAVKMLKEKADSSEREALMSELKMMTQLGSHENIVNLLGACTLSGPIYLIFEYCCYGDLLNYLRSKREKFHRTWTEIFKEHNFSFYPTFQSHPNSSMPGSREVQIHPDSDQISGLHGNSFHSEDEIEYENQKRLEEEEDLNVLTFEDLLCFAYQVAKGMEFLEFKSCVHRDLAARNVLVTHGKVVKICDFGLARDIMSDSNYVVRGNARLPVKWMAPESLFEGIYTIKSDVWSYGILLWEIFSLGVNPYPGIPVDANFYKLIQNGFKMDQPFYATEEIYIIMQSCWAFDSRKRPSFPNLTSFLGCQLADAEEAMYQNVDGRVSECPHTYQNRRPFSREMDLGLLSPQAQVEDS

[3] = molecular target: T3, Discoidin domain-containing receptor 2 (Homo sapiens, UniProt Q16832)
T3 sequence (Q16832 whole entry): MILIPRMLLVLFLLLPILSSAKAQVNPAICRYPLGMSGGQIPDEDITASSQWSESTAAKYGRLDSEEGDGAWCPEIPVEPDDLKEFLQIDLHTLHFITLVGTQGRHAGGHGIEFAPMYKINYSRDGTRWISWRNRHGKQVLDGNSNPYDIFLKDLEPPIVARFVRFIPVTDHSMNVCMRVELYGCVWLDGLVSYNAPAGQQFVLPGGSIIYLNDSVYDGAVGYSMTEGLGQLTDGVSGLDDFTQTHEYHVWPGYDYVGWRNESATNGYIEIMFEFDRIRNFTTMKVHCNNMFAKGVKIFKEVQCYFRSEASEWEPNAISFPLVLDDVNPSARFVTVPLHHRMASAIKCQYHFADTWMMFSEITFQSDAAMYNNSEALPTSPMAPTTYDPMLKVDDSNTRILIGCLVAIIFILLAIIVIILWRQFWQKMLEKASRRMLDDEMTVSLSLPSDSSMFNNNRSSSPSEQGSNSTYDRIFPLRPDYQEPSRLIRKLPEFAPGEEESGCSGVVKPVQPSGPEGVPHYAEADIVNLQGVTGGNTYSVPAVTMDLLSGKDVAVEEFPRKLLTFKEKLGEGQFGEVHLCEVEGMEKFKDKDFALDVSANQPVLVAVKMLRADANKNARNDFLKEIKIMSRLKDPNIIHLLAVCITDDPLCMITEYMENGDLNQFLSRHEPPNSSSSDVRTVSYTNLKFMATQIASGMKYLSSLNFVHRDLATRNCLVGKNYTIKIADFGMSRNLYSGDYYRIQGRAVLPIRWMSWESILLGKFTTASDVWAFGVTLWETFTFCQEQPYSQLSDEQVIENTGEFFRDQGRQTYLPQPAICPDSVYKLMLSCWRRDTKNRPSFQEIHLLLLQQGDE
Description: Binding affinity to human DDR2

[4] = molecular target: T2, Receptor-type tyrosine-protein kinase FLT3; experiment: Binding affinity to human FLT3
[5] = molecular target: T3, Discoidin domain-containing receptor 2; experiment: Inhibition of human DDR2 using KKSRGDYMTMQIG peptide substrate
[6] = molecular target: T4, Mast/stem cell growth factor receptor Kit (Homo sapiens, UniProt P10721); experiment: Inhibition of human c-Kit using poly[Glu:Tyr] (4:1) peptide substrate
T4 sequence (P10721 whole entry): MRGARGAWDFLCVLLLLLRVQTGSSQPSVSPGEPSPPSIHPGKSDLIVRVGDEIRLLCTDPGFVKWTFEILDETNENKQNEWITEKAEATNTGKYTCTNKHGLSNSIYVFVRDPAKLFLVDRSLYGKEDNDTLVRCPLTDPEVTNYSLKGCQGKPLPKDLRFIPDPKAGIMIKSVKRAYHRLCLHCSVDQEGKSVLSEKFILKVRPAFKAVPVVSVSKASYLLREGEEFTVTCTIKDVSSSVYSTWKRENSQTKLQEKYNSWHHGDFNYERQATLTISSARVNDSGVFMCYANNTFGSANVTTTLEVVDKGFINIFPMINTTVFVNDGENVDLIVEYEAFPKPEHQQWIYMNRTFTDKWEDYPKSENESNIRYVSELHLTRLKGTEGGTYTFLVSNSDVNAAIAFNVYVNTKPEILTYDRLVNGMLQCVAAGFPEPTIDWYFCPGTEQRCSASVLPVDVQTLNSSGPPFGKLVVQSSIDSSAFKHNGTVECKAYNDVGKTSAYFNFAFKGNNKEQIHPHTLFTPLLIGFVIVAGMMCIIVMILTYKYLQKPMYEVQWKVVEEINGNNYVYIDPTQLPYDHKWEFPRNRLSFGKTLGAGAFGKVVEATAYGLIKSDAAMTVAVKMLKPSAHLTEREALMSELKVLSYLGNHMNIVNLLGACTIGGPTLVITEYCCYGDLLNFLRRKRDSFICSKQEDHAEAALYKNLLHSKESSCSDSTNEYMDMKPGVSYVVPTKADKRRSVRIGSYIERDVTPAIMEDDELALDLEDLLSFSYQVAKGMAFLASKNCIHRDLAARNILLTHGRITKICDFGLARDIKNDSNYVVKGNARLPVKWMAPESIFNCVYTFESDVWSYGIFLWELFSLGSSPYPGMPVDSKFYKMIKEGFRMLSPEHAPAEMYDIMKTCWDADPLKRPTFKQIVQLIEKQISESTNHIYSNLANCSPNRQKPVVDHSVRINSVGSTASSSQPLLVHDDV

[7] = molecular target: Tyrosine-protein kinase Lck (Homo sapiens, UniProt P06239); experiment: Inhibition of human LCK using poly[Glu:Tyr] (4:1) peptide substrate
Sequence of Tyrosine-protein kinase Lck (P06239 whole entry): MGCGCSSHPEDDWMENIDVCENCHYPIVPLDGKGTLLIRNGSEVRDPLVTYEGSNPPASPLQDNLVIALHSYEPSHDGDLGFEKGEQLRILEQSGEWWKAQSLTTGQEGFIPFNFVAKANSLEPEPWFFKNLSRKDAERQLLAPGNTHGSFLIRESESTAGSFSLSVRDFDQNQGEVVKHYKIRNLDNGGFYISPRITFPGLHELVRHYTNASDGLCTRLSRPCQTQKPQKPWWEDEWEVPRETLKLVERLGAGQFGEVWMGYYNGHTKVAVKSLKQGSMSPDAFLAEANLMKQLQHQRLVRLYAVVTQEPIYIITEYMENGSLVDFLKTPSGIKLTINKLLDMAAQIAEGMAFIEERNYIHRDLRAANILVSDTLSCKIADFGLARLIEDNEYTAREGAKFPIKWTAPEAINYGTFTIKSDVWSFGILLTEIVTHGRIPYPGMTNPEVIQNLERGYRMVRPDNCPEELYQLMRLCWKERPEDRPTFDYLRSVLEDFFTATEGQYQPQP

[8] = molecular target: Mast/stem cell growth factor receptor Kit (Homo sapiens, UniProt P10721, T670I); experiment: Inhibition of human c-Kit T670I mutant using poly[Glu:Tyr] (4:1) peptide substrate
Sequence of Mast/stem cell growth factor receptor Kit (Homo sapiens, UniProt P10721, T670I) (P10721 26-976 T670I limits assumed): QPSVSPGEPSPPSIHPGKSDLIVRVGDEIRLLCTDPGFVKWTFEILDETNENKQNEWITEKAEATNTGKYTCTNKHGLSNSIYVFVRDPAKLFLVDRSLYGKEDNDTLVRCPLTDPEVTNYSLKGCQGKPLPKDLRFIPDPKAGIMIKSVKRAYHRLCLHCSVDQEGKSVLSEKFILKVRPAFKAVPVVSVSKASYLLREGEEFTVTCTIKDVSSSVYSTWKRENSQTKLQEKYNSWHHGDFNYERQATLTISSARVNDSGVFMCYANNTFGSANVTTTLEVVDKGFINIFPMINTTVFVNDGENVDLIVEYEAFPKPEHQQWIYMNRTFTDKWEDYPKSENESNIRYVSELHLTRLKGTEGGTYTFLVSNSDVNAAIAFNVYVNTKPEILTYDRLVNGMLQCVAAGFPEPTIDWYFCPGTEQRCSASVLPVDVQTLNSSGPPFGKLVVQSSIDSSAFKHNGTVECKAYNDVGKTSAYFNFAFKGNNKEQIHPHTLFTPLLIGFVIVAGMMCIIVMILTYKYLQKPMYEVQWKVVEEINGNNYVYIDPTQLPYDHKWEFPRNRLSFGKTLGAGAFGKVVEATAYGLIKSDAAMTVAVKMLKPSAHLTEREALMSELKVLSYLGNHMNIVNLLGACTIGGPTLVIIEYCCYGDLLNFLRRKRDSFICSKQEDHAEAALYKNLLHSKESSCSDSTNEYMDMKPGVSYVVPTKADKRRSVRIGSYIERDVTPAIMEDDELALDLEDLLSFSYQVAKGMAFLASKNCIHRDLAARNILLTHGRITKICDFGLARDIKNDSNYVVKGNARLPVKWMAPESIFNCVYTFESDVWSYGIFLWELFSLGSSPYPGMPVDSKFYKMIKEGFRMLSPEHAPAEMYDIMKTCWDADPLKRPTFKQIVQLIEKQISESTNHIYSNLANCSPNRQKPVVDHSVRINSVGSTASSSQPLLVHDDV

[9] = molecular target: Mast/stem cell growth factor receptor Kit (Homo sapiens, UniProt P10721, V654A); experiment: Inhibition of human c-Kit V654A mutant using poly[Glu:Tyr] (4:1) peptide substrate
Sequence of Mast/stem cell growth factor receptor Kit (Homo sapiens, UniProt P10721, V654A) (P10721 26-976 V654A limits assumed): as the sequence (P10721 26-976 T670I limits assumed) above, with V629A, I645T counted along it

[10] = molecular target: T1, Platelet-derived growth factor receptor beta; experiment: Binding affinity to human PDGFRbeata
[11] = molecular target: T4, Mast/stem cell growth factor receptor Kit; experiment: Binding affinity to human c-Kit

T1 sequence (P09619 whole entry): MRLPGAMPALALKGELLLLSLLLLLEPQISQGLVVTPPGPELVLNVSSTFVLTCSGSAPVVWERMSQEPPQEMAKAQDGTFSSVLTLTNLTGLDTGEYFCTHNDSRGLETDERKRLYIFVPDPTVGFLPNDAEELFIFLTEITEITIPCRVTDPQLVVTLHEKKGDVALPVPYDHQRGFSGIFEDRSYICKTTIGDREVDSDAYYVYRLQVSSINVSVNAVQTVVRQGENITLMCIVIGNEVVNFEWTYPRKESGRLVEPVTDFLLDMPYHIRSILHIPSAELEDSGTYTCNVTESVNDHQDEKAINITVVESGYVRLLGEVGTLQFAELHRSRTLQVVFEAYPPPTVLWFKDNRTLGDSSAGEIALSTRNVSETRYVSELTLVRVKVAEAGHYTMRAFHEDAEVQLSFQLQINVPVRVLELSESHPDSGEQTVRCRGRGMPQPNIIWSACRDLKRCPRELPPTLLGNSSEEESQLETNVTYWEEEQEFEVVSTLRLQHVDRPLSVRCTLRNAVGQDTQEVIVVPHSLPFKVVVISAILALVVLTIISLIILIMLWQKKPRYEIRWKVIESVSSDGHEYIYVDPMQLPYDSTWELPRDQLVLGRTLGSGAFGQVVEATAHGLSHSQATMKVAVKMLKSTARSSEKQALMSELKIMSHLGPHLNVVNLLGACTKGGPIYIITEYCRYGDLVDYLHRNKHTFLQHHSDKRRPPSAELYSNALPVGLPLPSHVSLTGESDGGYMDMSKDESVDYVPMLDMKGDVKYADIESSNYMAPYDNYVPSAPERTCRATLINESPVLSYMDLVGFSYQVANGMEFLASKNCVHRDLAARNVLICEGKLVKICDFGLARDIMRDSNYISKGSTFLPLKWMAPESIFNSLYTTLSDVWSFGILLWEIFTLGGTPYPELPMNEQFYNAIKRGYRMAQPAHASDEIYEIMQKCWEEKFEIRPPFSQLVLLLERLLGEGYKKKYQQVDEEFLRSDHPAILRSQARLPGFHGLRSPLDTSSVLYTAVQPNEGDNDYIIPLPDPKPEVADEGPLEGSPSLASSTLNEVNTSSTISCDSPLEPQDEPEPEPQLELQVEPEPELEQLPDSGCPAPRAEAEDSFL

Structure (SMILES)	IC50 [1] [nM]	IC50 [2] [nM]	Kd [3] [nM]	Kd [4] [nM]	IC50 [5] [nM]	IC50 [6] [nM]	IC50 [7] [nM]	IC50 [8] [nM]	IC50 [9] [nM]	Kd [10] [nM]	Kd [11] [nM]
Cc1cn(-c2cc(F)cc(NC(=O)c3ccc(C)c(Nc4nccc(-c5cccnc5)n4)c3)c2)cn1	> 5000	118	14	58	179	9.96	11100	> 1000	> 400	8.5	3.5
Cc1cc(NC(=O)c2ccc(C)c(Nc3nccc(-c4cccnc4)n3)c2)cc(-n2cnc(C)c2)c1	768	882	5.6	1200	17.2	54.9	1450	> 1000	> 1000	12	14
Cc1cn(-c2cccc(NC(=O)c3ccc(C)c(Nc4nccc(-c5cccnc5)n4)c3)c2)cn1	35400	974	320	1400	653	32.5	44600	> 1000	> 1000	7.2	4.4
